Like-named read-outs stand apart in the source and are kept apart here.
How the values were obtained:
[1] = test system: TNF-α production in LPS-stimulated human peripheral blood mononuclear cells; assay: Inhibition of LPS-stimulated TNF-α release from PBMCs; type: cell-based; details: PBMC
Method: (§1) IC50 values were determined for representative compounds of the invention based upon their ability to inhibit LPS-induced cytokine production in human peripheral blood mononuclear cells. Human PBMCs (peripheral blood mononuclear cells) were isolated over a Ficoll gradient from buffy coats obtained from the local Red Cross. 10^6 PBMC cells/well were seeded in 24-well tissue culture plates in RPMI 1640 medium supplemented with 10% human serum, hepes buffer and sodium pyruvate. The cells were treated with 0.1% DMSO (vehicle) or test compounds (1, 10, and 100 uM) 30 minutes prior to activation with LPS (lipopolysaccharide) (E. Coli) at 10 ng/mL. 6-10 hours post LPS stimulation the culture supernatants were collected and levels of cytokines TNF-α and IL-1β were quantified by ELISA (R&D Systems) and/or Luminex (Linco Diagnostics). IC50 calculations were plotted using a nonlinear regression curve fit for exemplary substituted pyrazolo[1,5-a]pyridine compounds of the invention; results are provided in Table 2.

[2] = test system: mechanical allodynia after chronic constriction injury (CCI) to the sciatic nerve; assay: Mechanical allodynia by response to von Frey fibers, rat chronic constriction injury (CCI) model; type: in vivo, male Sprague-Dawley rats; details: 2 hr post dosing
Text: Chronic Constriction Injury: Heat and cold allodynia responses as well as mechanical allodynia sensations can be evaluated as described below in rats having a chronic constriction injury (CCI). A unilateral mononeuropathy is produced in rats using the chronic constriction injury model described in Bennett et al., Pain (1988) 33:87-107. CCI is produced in anesthetized rats as follows. The lateral aspect of each rat's hind limb is shaved and scrubbed with Nolvasan. Using aseptic techniques, an incision is made on the lateral aspect of the hind limb at the mid-thigh level. The biceps femoris is bluntly dissected to expose the sciatic nerve. On the right hind limb of each rat, four loosely tied ligatures (for example, Chromic gut 4.0; Ethicon, Johnson and Johnson, Somerville, N.J.) are made around the sciatic nerve approximately 1-2 mm apart. On the left side of each rat, an identical dissection is performed except that the sciatic nerve is not ligated (sham). The muscle is closed with a continuous suture pattern with, e.g., 4-0 Vicryl (Johnson and Johnson, Somerville, N.J.) and the overlying skin is closed with wound clips. The rats are ear-tagged for identification purposes and returned to animal housing.
To induce allodynia, male Sprague-Dawley rats underwent chronic constriction injury (CCI) to the sciatic nerve as described by Bennett and Xie, Pain 1988; 33(1):87-107. The plantar surface of the hind paws was stimulated with von Frey filaments (Stoelting) to induce a withdrawal response by blinded personnel. The bending force of fiber required to induce a 50% withdrawal response was calculated following CCI surgery (pre-dosing baseline). N=5-6 allodynic rats received a single intraperitoneal administration of test compound or vehicle. Two hours post-dosing, 50% paw withdrawal threshold was determined again by blinded testers using von Frey filaments. The change in 50% withdrawal threshold relative to pre-dosing baseline is reported in Table 2 for various substituted pyrazolo[1,5-a]pyridine compounds of the invention.

[3] = test system: IL-1β production in LPS-stimulated human peripheral blood mononuclear cells; assay: Inhibition of LPS-stimulated IL-1β release from PBMCs; type: cell-based; details: PBMC, LPS-stimulated cytokine release from PBMCs
Method: as §1

[4] = target: phosphodiesterase (PDE) enzyme derived from bovine brain; assay: Inhibition of PDE (PDELight kit, cAMP substrate); type: biochemical; details: PDE from brain extract, cAMP as substrate
Method: In a 96-well plate, phosphodiesterase (PDE) enzyme (0.5-1 mU/well) derived from bovine brain (Sigma) was combined with 5 uM cAMP substrate (Sigma). Test compounds (0-200 uM) or vehicle (0.5% DMSO) were added to the enzyme/substrate and incubated for 1 hour. Using a PDELight® kit (Cambrex), the amount of AMP produced in the reaction from the hydrolysis of cAMP was quantified using PDELight AMP Detection Reagent which converts the AMP directly to ATP. The assay uses luciferase, which catalyses the formation of light from the newly formed ATP and luciferin. The luminescence was read on a Victor Light 1420 luminometer. IC50 calculations were plotted using a nonlinear regression curve fit.

[5] = LPS-stimulated cytokine release from PBMCs, read-out: TNF-α (IC50)
[6] = less than or equal to about 50 μM, PBMCs, read-out: IC50, LPS-induced cytokine production (cytokine not specified)

Structure (SMILES)	IC50 [1, 5]	Mechanical Allodynia ΔWT (change from pre-dosing 50% withdrawal threshold) ([2]; 10 mg/kg IP)	IC50 [3]	IC50 [4]	melting point	IC50 [1, 6]	Mechanical Allodynia ΔWT (change from pre-dosing 50% withdrawal threshold) ([2]; 20 mg/kg IP)	Mechanical Allodynia ΔWT (change from pre-dosing 50% withdrawal threshold) ([2]; 25 mg/kg PO)	Mechanical Allodynia ΔWT (change from pre-dosing 50% withdrawal threshold) ([2]; 40 mg/kg IP)
CC(C)C(=NO)c1c(C(C)C)nn2ccccc12 [Compound 1012, 1-(2-isopropylpyrazolo[1,5-a]pyridin-3-yl)-2-methylpropan-1-one oxime]	> 100 µM	1.56 grams	99 µM	40 µM	–	–	–	–	–
CC(C)C(=NO)c1c(-c2ccccc2)nn2ccccc12 [Compound 1016, 2-methyl-1-(2-phenylpyrazolo[1,5-a]pyridin-3-yl)propan-1-one oxime]	> 100 µM	0 grams	> 100 µM	75 µM	–	–	–	–	–
CC(CN1CCCCC1)C(=O)c1c(C(C)C)nn2ccccc12.Cl (centres unmarked) [compound 1063, 1-(2-isopropylpyrazolo[1,5-a]pyridin-3-yl)-2-methyl-3-(piperidin-1-yl)propan-1-one hydrochloride]	–	0 grams	–	–	166 to 167 °C	–	–	–	–
CC(C)C(=NO)c1c(-c2ccc(F)cc2)nn2ccccc12 [compound 1019, 1-(2-(4-fluorophenyl)pyrazolo[1,5-a]pyridin-3-yl)-2-methylpropan-1-one oxime]	> 100 µM	1.4 grams	> 100 µM	40 µM	–	–	–	–	–
CC(C)C(=O)c1c(C(C)C)nn2ccccc12 [compound 411, 3-isobutyryl-2-isopropylpyrazolo[1,5-a]pyridine, reference compound]	5 µM	2.31-3.53 grams	17.9 µM	10.3 µM	–	–	–	–	–
COc1ccc(C(=O)c2c(C(C)C)nn3ccccc23)cc1 [Compound 1008, (2-isopropylpyrazolo[1,5-a]pyridin-3-yl)(4-methoxyphenyl)methanone]	50 µM	0.84 grams	> 100 µM	5.8 µM	–	≤ 50 µM	–	–	–
CC(C)c1nn2ccccc2c1C(=O)CN [Compound 1009, 2-amino-1-(2-isopropylpyrazolo[1,5-a]pyridin-3-yl)ethanone]	25 µM	1.15 grams	99 µM	> 200 µM	–	≤ 50 µM	–	–	–
CC(C)c1nn2ccccc2c1C(O)C(C)C (centres unmarked) [Compound 1002, 1-(2-isopropylpyrazolo[1,5-a]pyridin-3-yl)-2-methylpropan-1-ol]	> 100 µM	0.79 grams	> 100 µM	> 200 µM	69 °C	–	–	–	–
CC(C)C(=O)c1c(-c2ccc(F)cc2)nn2cc(C(F)(F)F)ccc12 [Compound 1027, 1-(2-(4-fluorophenyl)-6-(trifluoromethyl)pyrazolo[1,5-a]pyridin-3-yl)-2-methylpropan-1-one]	–	0 grams	–	> 200 µM	129 to 130 °C	–	–	–	–
CC(C)C(=NOC(N)=O)c1c(C(C)C)nn2ccccc12 [compound 1014, 1-(2-isopropylpyrazolo[1,5-a]pyridin-3-yl)-2-methylpropan-1-one O-carbamoyl oxime]	1.3 µM	10 mg/kg: 2.18 grams	1 µM	100 µM	–	≤ 50 µM	20 mg/kg: 3.73 grams	–	–
CC(C)c1nn2ccccc2c1C(=O)C(C)(C)O [compound 1004, 2-hydroxy-1-(2-isopropylpyrazolo[1,5-a]pyridin-3-yl)-2-methylpropan-1-one]	28.8 µM	0.48 grams	> 100 µM	12.6 µM	–	≤ 50 µM	–	–	–
O=C(c1c(C2CC2)nn2ccccc12)C1CC1 [Compound 1047, cyclopropyl(2-cyclopropylpyrazolo[1,5-a]pyridin-3-yl)methanone]	–	0.68 grams	–	15.4 µM	102 to 104 °C	–	–	–	–
CC(C)C(=O)c1c(C(C)C)nn2cc(O)ccc12 [compound 1006, 1-(6-hydroxy-2-isopropylpyrazolo[1,5-a]pyridin-3-yl)-2-methylpropan-1-one]	1.3 µM	0 grams	14.7 µM	29.6 µM	–	≤ 50 µM	–	–	–
CC(C)c1nn2ccccc2c1C(=O)c1ccc(Cl)cc1 [Compound 1007, (4-chlorophenyl)(2-isopropylpyrazolo[1,5-a]pyridin-3-yl)methanone]	13 µM	0.92 grams	29.7 µM	> 200 µM	–	≤ 50 µM	–	–	–
CC(C)c1nn2ccccc2c1C(=O)C1CC1 [Compound 1046, cyclopropyl(2-isopropylpyrazolo[1,5-a]pyridin-3-yl)methanone]	–	0 grams	–	33.3 µM	72 °C	–	–	–	–
CC(C)C(=O)c1c(-c2ccccc2)nn2ccccc12 [Compound 1015, 2-methyl-1-(2-phenylpyrazolo[1,5-a]pyridin-3-yl)propan-1-one]	> 100 µM	0.51 grams	> 100 µM	80 µM	–	–	–	–	–
CC(CN)C(=O)c1c(C(C)C)nn2ccccc12.Cl (centres unmarked) [compound 1065, 3-amino-1-(2-isopropylpyrazolo[1,5-a]pyridin-3-yl)-2-methylpropan-1-one hydrochloride]	–	0.91 grams	–	–	110 to 115 °C	–	–	–	–
CC(C)C(=O)c1c(-c2ccc(F)cc2)nn2ccccc12 [Compound 1018, 1-(2-(4-fluorophenyl)pyrazolo[1,5-a]pyridin-3-yl)-2-methylpropan-1-one]	32.7 µM	0 grams	> 100 µM	> 200 µM	–	≤ 50 µM	–	–	–
CC(CNCc1ccccc1)C(=O)c1c(C(C)C)nn2ccccc12.Cl (centres unmarked) [compound 1066, 3-(benzylamino)-1-(2-isopropylpyrazolo[1,5-a]pyridin-3-yl)-2-methylpropan-1-one hydrochloride]	–	0.1 grams	–	–	171 to 175 °C	–	–	–	–
CC(C)C(=O)c1c(C2CC2)nn2ccccc12 [compound 1050, 1-(2-cyclopropylpyrazolo[1,5-a]pyridin-3-yl)-2-methylpropan-1-one]	–	0 grams	–	–	108 to 109 °C	–	–	–	–
CC(N)C(=O)c1c(C(C)C)nn2ccccc12 (centres unmarked) [compound 1013, 2-amino-1-(2-isopropylpyrazolo[1,5-a]pyridin-3-yl)propan-1-one]	13.6 µM	10 mg/kg: 1.04 grams	> 100 µM	> 200 µM	–	≤ 50 µM	20 mg/kg: 1.33 grams	25 mg/kg PO: 1.39 grams	40 mg/kg: 3.16 grams

From US7585875B2, “Substituted pyrazolo[1,5-a]pyridine compounds and their methods of use” (Avigen, Inc., priority 2006, dated 2009)
